Columns and labels:
[1] = tested on: photo-oxidative induced retinopathy; assay: Photo-oxidative induced retinopathy: 6-hour blue light exposure, ERG after 5-day recovery; conditions: rat, in vivo
Excerpt: Photic retinopathy results from excessive excitation of the retinal pigment epithelium and neuroretina by absorption of visible or near ultraviolet radiation. Lesion severity is dependent upon wavelength, irradiance, exposure duration, species, ocular pigmentation, and age. Damage may result from peroxidation of cellular membranes, inactivation of mitochondrial enzymes such as cytochrome oxidase, or increased intracellular calcium. Cellular damage resulting from photo-oxidative stress leads to cell death by apoptosis, (Shahinfar, S., Edward. D. P. and Tso, M. O. (1991), A pathologic study of photoreceptor cell death in retinal photic injury. Current Eye Research, 10:47-59: Abler, A. S., Chang, C. J., Fu, J. and Tso, M. O. (1994), Photic injury triggers apoptosis of photoreceptor cells. Investigative Ophthalmology & Visual Science, 35(Suppl):1517). Oxidative stress induced apoptosis has been implicated as a cause of many ocular pathologies, including, iatrogenic retinopathy, macular degeneration, retinitis pigmentosa and other forms of heredodegenerative disease, ischemic retinopathy, retinal tears, retinal detachment, glaucoma and retinal neovascularization (Chang, C. J., Lai, W. W., Edward, D. P. and Tso, M. O. (1995), Apoptotic photoreceptor cell death after traumatic retinal detachment in humans, Archives of Ophthalmology, 113:880-886: Portera-Cailliau, C., Sung, C. H., Nathans, J. and Adler, R. (1994), Apoptotic photoreceptor cell death in mouse models of retinitis pigmentosa, Proceedings of National Academy of Science (U.S.A.), 91:974-978; Buchi, E. R. (1992), Cell death in the rat retina after a pressure-induced ischaemia-reperfusion insult: an electron microscopic study. I. Ganglion cell layer and inner nuclear layer, Experimental Eye Research, 55:605-613; Quigley, H. A., Nickells. R. W., Kerrigan, L. A., Pease, M. E., Thibault, D. J. and Zack, D. J. (1995), Retinal ganglion cell death in experimental glaucoma and after axotomy occurs by apoptosis, Investigative Ophthalmology & Visual Science, 36:774-786). […] Alan R. Liss, Inc., New York; Collier, R., W. Waldron and Zigman, S. (1989), Temporal sequence of changes to the gray squirrel retina after near-UV exposure, Investigative Ophthalmology & Visual Science, 30:631-637), non-human primates (Tso, M. O. M. (1973), Photic maculopathy in rhesus monkey. A light and electron microscopic study. Investigative Ophthalmology & Visual Science, 12:17-34; Ham, W. T., Jr., Ruffolo, J. J., Jr., Mueller, H. A. and Guerry, D., III. (1980), The nature of retinal radiation damage: dependence on wavelength, power level and exposure time, Vision Research, 20:1105-1111; Sperling, H. G., Johnson, C. and Harwerth, R. S. (1980), Differential spectral photic damage to primate cones, Vision Research, 20:1117-1125: Sykes, S. M., Robison, W. G., Jr., Waxler, M. and Kuwabara, T. (1981), Damage to the monkey retina by broad spectrum fluorescent light, Investigative Ophthalmology & Visual Science, 20:425-434; Lawwill, T. (1982), Three major pathologic processes caused by light in the primate retina: A search for mechanisms, Transactions of the American Ophthalmology Society, 80:517-577), and man (Marshall, J. Hamilton, A. M. and Bird, A. C. (1975), Histopathology of ruby and argon laser lesions in monkey and human retina, British Journal of Ophthalmology, 59:610-630; Green, W. R. and Robertson, D. M. (1991), Pathologic findings of photic retinopathy in the human eye. American Journal of Ophthalmology, 112:520-27).

[2] = Drugs of the Future 1994; cited from earlier work
[3] = Drugs of the Future 1994; cited from earlier work; remark: listed apart in the source
[4] = target: NR1A/NR2B subtype of the polyamine binding site of the NMDA receptor (Homo sapiens, UniProt Q05586+Q13224); conditions: cited from earlier work
NMDA receptor = assay: Binding affinity to the NMDA receptor; conditions: order of magnitude only
retinal laser burn = assay: Retinal laser burn spread damage: argon laser, lesion area in outer nuclear layer after 48 hours; type: in vivo, Pigmented Long Evans rats
Excerpt: The eye is exposed to high-energy laser radiation during the performance of retinal photocoagulation therapy (grid, focal and […]) or during photodynamic therapy. This type of therapy is often employed during treatment of choroidal neovascularization, proliferative stages of diabetic retinopathy, retinopathy of prematurity, or to repair retinal holes or […]. Associated with this laser therapy is tissue destruction leading to vision deterioration. […] It is believed that this vision loss results directly from the expansion of the laser-induced lesion to surrounding normal neurosensory retina and RPE. Singlet oxygen and other reactive oxygen species as well as cytokines are generated in the area of the laser burn and thought to migrate laterally to cause collateral retinal damage. Retinal morphology changes in this area are similar to changes in our photo-oxidative retinopathy paradigm. […] Pigmented Long Evans rats were randomly assigned to control, vehicle or drug dosed groups. […] After a 48-hour recovery period, eyes were fixed, dehydrated, and embedded in plastic resin. Histological assessment of laser burns was performed by flatmounting the retina and sectioning the tissue in a plane tangential to the nerve fiber layer. Using this technique, the lesion area in the outer nuclear layer could be calculated using an image analysis system. […] The laser bum center was marked by; complete closure of all capillaries, arterioles and venuoles; perforation of Bruch's membrane; pyknosis and necrosis of all photoreceptor nuclei; and destruction of inner and outer segments. Spread of the lesion into peripheral retina consisted of shortening of outer segments, inner segment swelling, clumping of melanin granules in the RPE and choroid, and vacuolization of the RPE.

[5] = tested on: light induced functional or morphological changes; assay: Light damage paradigms (light induced damage paradigm); conditions: in vivo
Method: Eliprodil was evaluated in our light induced damage paradigm, a model of retinal degenerative diseases such as retinitis pigmentosa and age-related macular degeneration.

Chain of NR1A/NR2B subtype of the polyamine binding site of the NMDA receptor (Q13224 27-1484, other chains not shown): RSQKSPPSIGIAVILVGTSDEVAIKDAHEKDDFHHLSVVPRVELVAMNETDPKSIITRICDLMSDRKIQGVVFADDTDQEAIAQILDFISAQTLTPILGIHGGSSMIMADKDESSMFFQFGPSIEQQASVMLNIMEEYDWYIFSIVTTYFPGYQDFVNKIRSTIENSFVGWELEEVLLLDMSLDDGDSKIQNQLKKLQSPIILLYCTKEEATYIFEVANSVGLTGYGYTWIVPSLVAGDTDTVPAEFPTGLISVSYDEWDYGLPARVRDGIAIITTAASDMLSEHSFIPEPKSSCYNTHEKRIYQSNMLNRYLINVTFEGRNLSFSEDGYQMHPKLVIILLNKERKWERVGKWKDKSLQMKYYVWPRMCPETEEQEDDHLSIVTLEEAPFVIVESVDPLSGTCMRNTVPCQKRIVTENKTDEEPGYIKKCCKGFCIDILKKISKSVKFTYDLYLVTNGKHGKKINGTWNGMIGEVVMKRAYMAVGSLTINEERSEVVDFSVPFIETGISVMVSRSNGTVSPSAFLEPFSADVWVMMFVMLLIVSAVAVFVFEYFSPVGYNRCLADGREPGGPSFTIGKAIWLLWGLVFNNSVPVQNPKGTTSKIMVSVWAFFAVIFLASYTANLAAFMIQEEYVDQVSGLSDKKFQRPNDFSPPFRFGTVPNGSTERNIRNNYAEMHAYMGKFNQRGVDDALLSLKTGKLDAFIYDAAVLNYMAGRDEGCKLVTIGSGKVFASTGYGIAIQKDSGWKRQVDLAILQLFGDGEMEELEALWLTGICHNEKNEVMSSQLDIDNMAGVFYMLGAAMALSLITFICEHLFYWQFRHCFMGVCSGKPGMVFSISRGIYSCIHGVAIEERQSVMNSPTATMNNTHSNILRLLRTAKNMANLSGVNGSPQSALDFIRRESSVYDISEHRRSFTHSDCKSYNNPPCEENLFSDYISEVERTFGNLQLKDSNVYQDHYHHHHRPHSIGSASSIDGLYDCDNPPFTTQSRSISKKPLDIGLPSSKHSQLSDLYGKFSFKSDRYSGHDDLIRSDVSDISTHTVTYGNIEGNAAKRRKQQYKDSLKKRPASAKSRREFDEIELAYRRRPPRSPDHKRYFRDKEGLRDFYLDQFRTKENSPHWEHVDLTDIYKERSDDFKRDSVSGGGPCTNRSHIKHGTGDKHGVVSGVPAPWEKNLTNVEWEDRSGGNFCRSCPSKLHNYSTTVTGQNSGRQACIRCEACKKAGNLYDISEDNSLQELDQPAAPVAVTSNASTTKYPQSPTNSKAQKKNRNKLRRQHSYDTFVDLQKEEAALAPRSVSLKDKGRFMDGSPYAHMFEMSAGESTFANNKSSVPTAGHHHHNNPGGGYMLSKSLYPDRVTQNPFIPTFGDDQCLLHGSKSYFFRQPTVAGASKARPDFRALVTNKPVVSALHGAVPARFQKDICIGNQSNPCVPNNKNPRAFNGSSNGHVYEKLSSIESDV

OC(CN1CCC(Cc2ccc(F)cc2)CC1)c1ccc(Cl)cc1 (racemic) [Eliprodil, 2-[4-(4-fluorobenzyl)-piperidino]-1-(4-chlorophenyl)ethanol]
dose dependence of protection of outer and inner retina function [1]: dose-dependent protection | ERGs, % of normal ([1]; ip, 2 mg/kg): approximately 32% | protection of outer and inner retina function against light induced retinal degeneration ([1]; ip, 2 mg/kg): not significantly different than vehicles | ERGs, % of normal ([1]; ip, 10 mg/kg): approximately 32% | protection of outer and inner retina function against light induced retinal degeneration ([1]; ip, 10 mg/kg): not significantly different than vehicles | ERG a-wave, % of normal ([1]; ip, 20 mg/kg): 57% | ERG a-wave, fold higher than vehicle dosed rats ([1]; ip, 20 mg/kg): 2.4 fold | ERG b-wave, % of normal ([1]; ip, 20 mg/kg): 53% | ERG b-wave, fold higher than vehicle dosed rats ([1]; ip, 20 mg/kg): 2.2 fold | Maximum a-wave response amplitude, fold higher than vehicle dosed rats ([1]; ip, 20 mg/kg): 2.4 fold | maximum a-wave response amplitude ([1]; ip, 20 mg/kg): 395.82 μV | response amplitudes, % of normal ([1]; ip, 20 mg/kg): approximately 60% | Maximum a-wave response amplitude, fold higher than vehicle dosed rats ([1]; ip, 40 mg/kg): 2.25 fold | maximum a-wave response amplitude ([1]; ip, 40 mg/kg): 419.85 μV | protection of outer and inner retina function against light induced retinal degeneration ([1]; ip, 40 mg/kg): significant protection | response amplitudes, % of normal ([1]; ip, 40 mg/kg): approximately 60% | incidence of adverse effects upon administration [2]: low incidence of adverse effects | crossing of the blood-brain barrier [3]: effectively crosses the blood-brain barrier | oral bioavailability [3]: orally bioavailable | subtype preference of NMDA receptor block [4]: preferentially block | binding affinity to the NMDA receptor (NMDA receptor): nanomolar | Laser burn lesion area (retinal laser burn; 10 mg/kg IP): 55,411.67 μ^2 | reduction in laser lesion burn size (retinal laser burn; 10 mg/kg IP): No reduction | reduction of retinal burn area compared to vehicle (retinal laser burn; IP, dose not given): approximately 60% | significance of burn area reduction compared to vehicle (retinal laser burn; IP, dose not given): significantly reduced | average burn area (retinal laser burn; IP, dose not given, vehicle 55,243.65, control 50,627.07): 22,406 μ^2 | efficacy compared to R-eliprodil (retinal laser burn; summary): twice as efficacious | potency compared to R-eliprodil (retinal laser burn; summary): two fold more potent | reduction of collateral retinal damage around the laser burn (summary) (retinal laser burn; summary): significant reduction | preventing light induced functional or morphological changes [5]: completely protected
